# Data as given in ChEMBL document CHEMBL4257490, “Development of a peptide-based bifunctional chelator conjugated to a cytotoxic drug for the treatment of melanotic melanoma” (Medchemcomm, 2018).
# Active and inactive are the calls of the source. The rule behind the calls is not given here. Residues, ends and D or L forms follow the SMILES beside them. *: point of attachment. X1 = O=c1nc(N*)ccn1[C@@H]1O[C@H](CO)[C@@H](O)C1(F)F
# Columns and labels:
# [1] = Drug uptake in gastrointestinal tract of Balb/c mouse allografted with mouse B16F10 cells using 99mTc(CO)3-labeled compound at 4 to 8 MBq, iv measured at 4 hrs by scintigraphic imaging method; type: ADME, organism-based; settings: in vivo
# B16-F10 [2] = assay: Antitumor activity against mouse B16F10 cells allografted in Balb/c mouse assessed as tumor growth inhibition at 25 mg/kg, iv administered thrice weekly for 21 days starting on day 10 post tumor implantation relative to control; type: functional; settings: read-out: TGI
# [3] = Drug uptake in liver of Balb/c mouse allografted with mouse B16F10 cells using 99mTc(CO)3-labeled compound at 10 to 12 MBq/kg, iv measured at 2 hrs; type: ADME, organism-based; settings: in vivo
# B16-F10 [4] = assay: Induction of apoptosis in mouse B16F10 cells assessed as necrotic cells at IC50 after 72 hrs by annexin V-FITC/propidium iodide staining-based flow cytometric method relative to control; type: functional
# [5] = Metabolic stability in rat serum assessed as parent compound remaining using 99mTc(CO)3-labeled compound after 24 hrs by TLC method; type: ADME, cell-free; settings: read-out: Stability
# [6] = Drug uptake in lung of Balb/c mouse allografted with mouse B16F10 cells using 99mTc(CO)3-labeled compound at 10 to 12 MBq/kg, iv measured at 4 hrs; type: ADME, organism-based; settings: in vivo
# [7] = Drug uptake in muscle of Balb/c mouse allografted with mouse B16F10 cells using 99mTc(CO)3-labeled compound at 10 to 12 MBq/kg, iv measured at 2 hrs; type: ADME, organism-based, Muscle tissue; settings: in vivo
# B16-F10 [8] = assay: Induction of apoptosis in mouse B16F10 cells at IC50 after 72 hrs by annexin V-FITC/propidium iodide staining-based flow cytometric method relative to control; type: functional
# [9] = Drug uptake in liver of Balb/c mouse allografted with mouse B16F10 cells using 99mTc(CO)3-labeled compound at 4 to 8 MBq, iv measured at 4 hrs by scintigraphic imaging method; type: ADME, organism-based; settings: in vivo
# [10] = Drug uptake in urinary bladder of Balb/c mouse allografted with mouse B16F10 cells using 99mTc(CO)3-labeled compound at 4 to 8 MBq, iv measured at 4 hrs by scintigraphic imaging method; type: ADME, organism-based; settings: in vivo
# [11] = Hemolytic activity in rat erythrocytes at 100 uM after 1 hr relative to control; type: ADME, cell-based, Erythrocyte; settings: read-out: Activity
# [12] = Drug uptake in tumor of Balb/c mouse allografted with mouse B16F10 cells using 99mTc(CO)3-labeled compound at 4 to 8 MBq, iv measured at 4 hrs by scintigraphic imaging method; type: ADME, organism-based, Neoplasm; settings: in vivo
# [13] = Drug uptake in blood of Balb/c mouse allografted with mouse B16F10 cells using 99mTc(CO)3-labeled compound at 10 to 12 MBq/kg, iv measured at 4 hrs; type: ADME, organism-based; settings: in vivo
# [14] = Drug degradation in histidine solution using 99mTc(CO)3-labeled compound after 24 hrs by TLC method; type: physicochemical; settings: read-out: Drug degradation
# [15] = Drug uptake in liver of Balb/c mouse allografted with mouse B16F10 cells using 99mTc(CO)3-labeled compound at 10 to 12 MBq/kg, iv measured at 4 hrs; type: ADME, organism-based; settings: in vivo
# [16] = Drug uptake in mouse B16F10 cells using 99mTc(CO)3-labeled compound at 15 to 20 MBq/ml after 30 mins by gamma scintillation counting method relative to total added activity; type: ADME, cell-based; settings: b16-f10, 0.5 h
# [17] = Drug uptake in urine of Balb/c mouse allografted with mouse B16F10 cells using 99mTc(CO)3-labeled compound at 10 to 12 MBq/kg, iv measured at 2 hrs; type: ADME, organism-based; settings: in vivo
# [18] = Drug uptake in mouse B16F10 cells using 5,6-carboxyfluorescein-labeled compound at 20 ug/ml after 4 hrs by DAPI staining-based fluorescence microscopic method; type: ADME, cell-based; settings: b16-f10, 4 h
# [19] = Ratio of drug level in tumor to muscle of Balb/c mouse allografted with mouse B16F10 cells using 99mTc(CO)3-labeled compound at 10 to 12 MBq/kg, iv measured at 2 hrs; type: ADME, organism-based, Tumor/tissue; settings: in vivo
# [20] = Drug uptake in heart of Balb/c mouse allografted with mouse B16F10 cells using 99mTc(CO)3-labeled compound at 10 to 12 MBq/kg, iv measured at 4 hrs; type: ADME, organism-based; settings: in vivo
# B16-F10 [21] = assay: Antitumor activity against mouse B16F10 cells allografted in Balb/c mouse assessed as decrease in formation of new blood vessels in tumor at 25 mg/kg, iv administered thrice weekly for 21 days starting on day 10 post tumor implantation by haematoxylin and eosin staining-based method; type: functional, organism-based
# B16-F10 [22] = assay: Ratio of drug uptake in mouse B16F10 cells at 20 ug/ml after 4 hrs by flow cytometric method to drug uptake in mouse B16F10 cells at 20 ug/ml after 30 mins by flow cytometric method; type: ADME, cell-based
# [23] = Drug uptake in kidney of Balb/c mouse allografted with mouse B16F10 cells using 99mTc(CO)3-labeled compound at 4 to 8 MBq, iv measured at 4 hrs by scintigraphic imaging method; type: ADME, organism-based; settings: in vivo
# [24] = Drug uptake in spleen of Balb/c mouse allografted with mouse B16F10 cells using 99mTc(CO)3-labeled compound at 10 to 12 MBq/kg, iv measured at 4 hrs; type: ADME, organism-based; settings: in vivo
# [25] = Drug uptake in heart of Balb/c mouse allografted with mouse B16F10 cells using 99mTc(CO)3-labeled compound at 10 to 12 MBq/kg, iv measured at 2 hrs; type: ADME, organism-based; settings: in vivo
# [26] = n-Octanol-phosphate buffer partition co-efficient, log P of 99mTc(CO)3-labeled compound at 2 to 3 KBq after 1 min by gamma scintillation counting method; type: physicochemical
# [27] = Drug uptake in tumor muscle of Balb/c mouse allografted with mouse B16F10 cells using 99mTc(CO)3-labeled compound at 10 to 12 MBq/kg, iv measured at 4 hrs; type: ADME, organism-based; settings: in vivo
# [28] = Ratio of drug level in tumor to blood of Balb/c mouse allografted with mouse B16F10 cells using 99mTc(CO)3-labeled compound at 10 to 12 MBq/kg, iv measured at 4 hrs; type: ADME, organism-based, Tumor/tissue
# [29] = Drug uptake in tumor muscle of Balb/c mouse allografted with mouse B16F10 cells using 99mTc(CO)3-labeled compound at 10 to 12 MBq/kg, iv measured at 2 hrs; type: ADME, organism-based; settings: in vivo
# B16-F10 [30] = assay: Induction of apoptosis in mouse B16F10 cells assessed as nuclear fragmentation at IC50 after 72 hrs by DAPI staining-based fluorescence microscopic method; type: functional, cell-based
# [31] = Drug uptake in intestine of Balb/c mouse allografted with mouse B16F10 cells using 99mTc(CO)3-labeled compound at 10 to 12 MBq/kg, iv measured at 4 hrs; type: ADME, organism-based; settings: in vivo
# [32] = Drug uptake in muscle of Balb/c mouse allografted with mouse B16F10 cells using 99mTc(CO)3-labeled compound at 10 to 12 MBq/kg, iv measured at 4 hrs; type: ADME, organism-based, Muscle tissue; settings: in vivo
# [33] = Ratio of drug level in tumor to blood of Balb/c mouse allografted with mouse B16F10 cells using 99mTc(CO)3-labeled compound at 10 to 12 MBq/kg, iv measured at 2 hrs; type: ADME, organism-based, Tumor/tissue
# Mus musculus = assay: Toxicity in mouse B16F10 cells allografted Balb/c mouse assessed as effect on body weight at 25 mg/kg, iv administered thrice weekly for 21 days starting on day 10 post tumor implantation (reference value: 30.52 +/- 2.9 g); type: organism-based; settings: in vivo, 504 h
smiles,measurement,setting,value
NCCCC[C@H](NC(=O)CNC(=O)[C@H](Cc1cnc[nH]1)NC(=O)[C@H](CCCCN)NC(=O)[C@H](Cc1ccc(O)cc1)NC(=O)[C@@H](N)Cc1cnc[nH]1)C(=O)N[C@@H](CC(=O)Nc1ccn([C@@H]2O[C@H](CO)[C@@H](O)C2(F)F)c(=O)n1)C(N)=O (H-HYKHGKD(X1)-NH2),Drug uptake,[1],Active
same,inhibition in vivo at 25 mg/kg,B16-F10 [2],62%
same,Drug uptake,[3],17.65 % ID/g
same,Activity,B16-F10 [4],12 - 14%
same,remaining at 24 h,[5],≥ 92%
same,Drug uptake,[6],0.25 % ID/g
same,Drug uptake,[7],0.17 % ID/g
same,Activity,B16-F10 [8],61%
same,Drug uptake,[9],Active
same,Drug uptake,[10],Active
same,"hemolysis at 1 h, 100 µM",[11],7 to 9%
same,Drug uptake,[12],Active
same,Drug uptake,[13],1.58 %ID/ml
same,degraded at 24 h,[14],5%
same,Drug uptake,[15],15.62 % ID/g
same,Drug uptake,[16],4.99%
same,Drug uptake,[17],41.21 %ID/ml
same,Drug uptake,[18],Active
same,Ratio,[19],10.64
same,Drug uptake,[20],0.04 % ID/g
same,Activity,B16-F10 [21],Active
same,Ratio,B16-F10 [22],4.4
same,Drug uptake,[23],Active
same,Drug uptake,[24],0.45 % ID/g
same,Drug uptake,[25],0.06 % ID/g
same,logP at 1 min,[26],-0.629
same,Drug uptake,[27],2.81 % ID/g
same,Kp at 4 h,[28],1.77
same,Drug uptake,[29],1.71 % ID/g
same,Activity,B16-F10 [30],Active
same,Drug uptake,[31],6.28 % ID/g
same,Drug uptake,[32],0.15 % ID/g
same,Kp at 2 h,[33],0.95
same,Activity,Mus musculus,25.15 g
